# A melting point compilation (Tetko et al.; mined from patent text by program, amines drawn as free bases though some values may be those of a salt)
row,Compound,melting point [°C]
1,CCC(O)c1c(C(C)C)nc(C(C)C)c(CO)c1-c1ccc(F)cc1 (stereo not given),173 to 175
2,NCCSC(c1ccccc1)(c1ccccc1)c1ccccc1,142 to 143
3,COc1ccc(CS(=O)(=O)c2cc(OC)c(OC)c(OC)c2)cc1,95 to 97
4,O[C@H](COc1cccc2[nH]ccc12)CN1CC=C(c2c[nH]c3ccc(F)cc23)CC1,95 to 100
5,Nc1ccnc(C(F)(F)F)c1,56 to 58
6,CCn1nnn(CCN2CCC(=C3c4sccc4CCn4ccnc43)CC2)c1=O,175
7,Nc1cc(=O)n2cc(Cl)c(C(c3c(F)ccc(F)c3F)S(=O)(=O)CCC(F)(F)F)cc2n1 (stereo not given),247
8,CCN1CCC=C(c2csc(N)n2)C1,116 to 120
9,O=C(CCCC(=O)Oc1cc(O)cc(O)c1)Oc1cc(O)cc(O)c1,205 to 208
10,COCCN(CCOC)c1nc2cc(-c3ccc(OC)cc3)nnc2c2ccccc12,127 to 128
11,O=c1[nH]c(C(F)(F)F)c(Br)c(=O)[nH]1,236 to 240
12,O=C(NO)[C@H](CNS(=O)(=O)c1ccc(OCc2ccc3ccccc3c2)cc1)N1CCCCC1,106
13,COc1cccc2c1[nH]c(=O)n2C(=O)Oc1ccccc1,204 to 205
14,CCOC1C=CC(=O)N1S(=O)(=O)c1ccccc1 (stereo not given),117 to 119
15,COc1ccc2c(c1OCCc1ccccc1)CC(C(=O)O)NC2 (racemic),232 to 235
16,CC1CC(C)CN(c2nccc(Oc3ccc(NC(=O)c4cc(F)cc(N5CCOCC5)c4)c4ccccc34)n2)C1 (stereo not given),102 to 104
17,CN1C(=O)[C@@](NC(=O)Nc2cccc(CNc3nnn[nH]3)c2)(C2CCCCC2)N=Cc2ccccc21,175 to 178
18,Nc1nsnc1-c1c(Cl)cccc1Cl,95 to 97
19,CCOC(=O)c1nn(-c2ccc(Cl)cc2)c2c1CCC2,122 to 123
20,COc1cc(OC)nc(C2OC(=O)c3c(Cl)cccc32)n1 (stereo not given),148 to 149
21,ClCc1ccc(OCc2ccccc2)cc1,74 to 76
22,COc1cc2c(cc1OC)N(C)C(=O)CNC2=O,260 to 263
23,C[C@@H](S[C@H]1CO[C@H](c2ccc(C(=O)NCc3ccc(C#N)cc3)cc2)OC1)[C@](O)(Cn1cncn1)c1ccc(F)cc1F,188
24,CNC(=S)NCC1=C(n2ccccc2=O)c2cc([N+](=O)[O-])ccc2OC1(C)C,225
25,CN(CCO)c1ccnc(CO)c1Cl,49 to 53

row,Compound,melting point [°C]
1,COC(=O)NC(CCc1ccccc1)C(=O)OCC(Cl)(Cl)Cl (stereo not given),31 to 35
2,CCn1cc(C(=O)O)c(=O)c2cnc(N3CCN(Cc4ccc(OC)cc4)CC3)nc21,136
3,CC(C)(C)[Si](C)(C)O[C@@H]1C[C@]2(O)C[C@@H](OC2=O)C1=O,92 to 95
4,COc1cccc(N2CCN(C(=O)Oc3ccc(Oc4ccc(C(F)(F)F)cn4)cc3)CC2)c1,109 to 111
5,CNC(CC(=O)O)c1ccccc1 (stereo not given),167 to 168
6,C=CCSc1nc(=O)[nH]cc1F,150 to 152
7,COCc1ncn2c1CN(C)C(=O)c1ccccc1-2,115 to 116
8,CCOC(=O)CNC(=O)c1ccc(-c2ccc([N+](=O)[O-])cc2)cc1,145 to 148
9,C=CC[C@@H]1C[C@@H](COS(C)(=O)=O)NC1=O,62 to 63
10,C=C(C)C(=O)N(SC1CCCCC1)c1ccccc1,56 to 56.5
11,O=C(O)c1cccc2c(Cl)c3ccccc3cc12,275 to 277
12,N#Cc1cc(C=O)cc(O)c1O,210 to 215
13,Cc1cc(-c2csc(-c3ccc(C(=O)O)cc3)n2)c(C)s1,239 to 240
14,Cc1cc(C)cc(-c2nc(NC(=O)c3ccccc3)sc2-c2ccncc2)c1,285 to 286
15,CSc1nn2c(N)cc(C)nc2c1S(=O)(=O)c1ccc(C)cc1,> 230
16,CCN(c1nc(C)cc(C)n1)c1ccc(CC=NOC)cc1SC,106 to 108
17,CC(C)c1ccc(-n2nc(Cl)cc2-c2ccc(S(C)(=O)=O)cc2)cc1,146 to 148
18,CC(=O)OCc1nc2nccnc2c(=O)[nH]1,210 to 212
19,CCCOc1c(C(=O)OCC)oc2ccc([N+](=O)[O-])cc12,107
20,CNC(=S)C1(c2cccnc2)CCCS1=O (stereo not given),204
21,CC1(CC(=O)O)CCCC1=O (stereo not given),70 to 72
22,Brc1c(C2=NOCCS2)sc2ccccc12,80 to 85
23,O=C1c2ccccc2C(=O)N1CCCOc1ccc(OCc2ccccc2)cc1,141 to 143
24,Cc1ccc(C)c(NC(=O)CN2C(=O)C3(COc4cc5c(cc43)CCO5)c3ccccc32)c1 (stereo not given),250 to 252
25,COCCN1CCc2cc(OC)c(O)cc2C1C1(c2ccccc2Cl)CC1 (stereo not given),115 to 120

row,Compound,melting point [°C]
1,CN1C(=O)CON(C(=O)OCc2ccccc2)C1c1ccccc1 (stereo not given),82 to 83
2,CCCCc1oc2ccccc2c1-c1ncc(-c2ccc3cc(OC(Cc4ccccc4)C(=O)O)ccc3c2)o1 (stereo not given),174 to 177
3,O=C(O)c1cnn(-c2cccc(C(F)(F)F)c2)c1,145 to 148
4,N#CNC(=NCCCOc1ccccc1)Nc1cncc(Br)c1,129 to 130
5,CON=Cc1cnnc2ccccc12,83 to 85
6,CCOC(=O)c1c(N)sc(N=Cc2cccs2)c1C(=O)OCC,114 to 116
7,CC1(O)CCC2(C)C(CCC3C2CCC2(C)C3CCC2[N+](=O)[O-])C1 (stereo not given),211 to 213
8,Cc1ccc(OC2COc3ccc(OCc4ccc5cc(F)ccc5n4)cc3C2O)cn1 (stereo not given),164 to 165
9,CC(C)C(=O)OCC(=O)C12OC(C3CCCCC3)OC1CC1C3CCC4=CC(=O)C=CC4(C)C3C(O)CC12C (stereo not given),210 to 211
10,O=P1(c2ccccc2)c2ccccc2CN1Cc1ccccc1 (stereo not given),99 to 101
11,CCCCc1cc(C#N)ncc1C(=O)O,267 to 268
12,O=c1ccc(C(c2ccccc2)c2ccc(Cl)cc2)c[nH]1 (stereo not given),164 to 169
13,COc1ccc(C(C#N)C(C)C)cc1OC (stereo not given),45.5 to 49
14,CCn1ncc2c(Cl)c3c(nc21)C(O)c1ccccc1CC3 (stereo not given),128 to 130
15,O=C(O)c1ccc(-c2cc(-c3ccc(C(F)(F)F)cc3)on2)cc1,> 300
16,CC1(C)C(C=C(Br)Br)C1C(=O)OCc1cccc(Oc2ccccc2)c1 (stereo not given),93
17,O=C(N[C@H](Cc1ccc(C(F)(F)F)cc1)[C@@H](O)c1ccc(F)cc1)c1cccc2cc3ccccc3cc12 (racemic),227 to 228
18,Cc1cc2c(c(C)c1C)OCC2,< 50
19,CCN(CC)CCCN1C(=O)NC(Cc2c[nH]c3ccc(Cl)cc23)C1=O (stereo not given),186
20,CC(C)C1N(C)CCCN1C(=O)NC(C)C1CC(N=C=O)CC(C)(C)C1 (stereo not given),180 to 192
21,CC(C)(Sc1ccc2c(-c3ccc(Cl)cc3)noc2c1)C(=O)O,176 to 177
22,CCCCCOc1ccc2c(c1)C=C(CN)CO2,126
23,Cc1c2c(c(C=O)c(C(C)C)c1OCc1ccccc1)OC(C)(C)C2,107 to 108
24,O=C(O)CCCOc1cccc2c1Cc1sc(SCC(c3ccccc3)c3ccccc3)nc1-2,137 to 138
25,Cc1nnc(-c2ccc3c(c2)c2cc(-c4ccc(Cl)cc4Cl)c(=O)n(C)c2n3C)o1,311 to 316
